In PMC9317397, “Design and Synthesis of Hepatitis B Virus (HBV) Capsid Assembly Modulators and Evaluation of Their Activity in Mammalian Cell Model” (Pharmaceuticals, 2022):
“Also recorded” adds a separate entry of the source. Where two headings read alike, the source gives them in different places.

What was measured:
primary hepatocytes = tested on: primary hepatocytes; parameters: method as in PMID 25921762; conditions: cited from earlier work
HBV [1] = conditions: HepG2.2.15 cells; for HBV DNA, % from control: six days, secreted virion DNA
HBV [2] = experiment: microbe, parasite or virus in culture; conditions: Hepatitis B virus, HepG2.2.15, 144 h, read-out: EC50 (50% reduction of HBV DNA), HepG2.2.15 cells, six days, 0–20 µM
BHK-21 cells [3] = experiment: Cytopathic effect (cell morphology, proliferation, trypan blue) in non-infected BHK-21 cells; format: cell-based, hamster; conditions: 24 h
Method: To define HAP compound non-toxic concentrations for initial studies, non-infected BHK-21 cells were incubated with compounds at four different concentrations for 24 h (25 μM, 50 μM, 100 μM, and 200 μM), and the cytopathic effects were evaluated by analysis of cell morphology and proliferation changes. […] 1c, 1j, 1k and 4a, and 7b. The reference comp.
The cytopathic effect of the compounds was estimated by phase contrast microscopy and standard trypan blue staining, and the cells were counted using an automatic cell counter (Invitrogen). BHK-21 and HepG2.2.15 cells were incubated for 24 h with the studied compounds at […] (25, 50, 100, 150 and 200 μM) and the cell morphology was controlled under microscope to evaluate cytopathic effects (Table 1, the highest non-toxic concentration).

[4] = molecular target: HBV capsid assembly (full-length HBc protein, genotype D1) (Hepatitis B virus genotype D subtype ayw, UniProt P03146, A80I/T33N/V74G); experiment: HBV capsid assembly in SFV1/HBc-infected HBc-producing BHK-21 cells, native agarose gel anti-HBc immunoblot; format: cell-based; conditions: HBc-producing BHK-21 cells; for Type of effect on HBV capsid assembly in dose-dependent experiments: 0.1–50 µM, 24 h (Figure 6); for Effect on Capsid Assembly / Effect on Capsid Assembly, Starting Concentration: 24 h, native agarose immunoblot
[5] = molecular target: HBV capsids (HBc assembly products) (Hepatitis B virus genotype D subtype ayw, UniProt P03146, A80I/T33N/V74G); experiment: Electron microscopy of HBc assembly products purified from treated BHK-21 cells; format: cell-based; conditions: 50 μM, 24 h, sucrose cushion pellet
HBc protein = HBc protein (Hepatitis B virus genotype D subtype ayw, UniProt P03146, A80I/T33N/V74G); experiment: Anti-HBc immunostaining and confocal microscopy of HBc-producing BHK-21 cells; format: cell-based; conditions: 20 μM and 50 μM, 24 h
BHK-21 cells [6] = experiment: MTT viability assay in BHK-21 cells; format: cell-based, hamster; conditions: 6.125–200 µM, 24 h
Method: BHK-21 cells were incubated with different concentrations (6.125, 12.25, 25, 50, 100, and 200 µM) of the respective compounds and the cell viability was calculated as a percentage from untreated cells (100%) (Figure 7). In general, the results confirmed the morphological observation of relatively low cytotoxicity for tested compounds at concentrations below 100 µM.
Additionally, cell viability was determined by tetrazolium salt-based assay using the Vybrant MTT Cell Proliferation kit (Thermo Fisher Scientific, Waltham, MA, USA) or more sensitive CCK-8 kit (Abcam). First, the cell numbers and protocol were optimized for BHK-21 and HepG2.2.15 cells, as indicated in the MTT assay kit or CCK-8 reagent manufacturer’s protocol, and standard curves with OD values were created and evaluated.
In order to evaluate the toxicity of selected HAP compounds in the medium, 1.3 × 10^4 BHK-21 were seeded per well in 96-well plates and treated with the studied compounds for 24 h at concentrations 6.125; 12.25; 25; 50; 100; and 200 μM. Control cells without HAP compounds and MTT-free cell media were included in the experiments. The MTT test was performed according to the full protocol version (Thermo Fisher Scientific).

HepG2.2.15 cells = experiment: MTT viability test in HepG2.2.15 cells (TC50); format: cell-based, human; conditions: 48 h, 0–200 µM
Method: In order to compare the cytotoxicity of compounds 1d and 1e in HBV producing HepG2.2.15 cells, the toxic concentrations (TC50 values) were estimated (Figure 9B,C).
In order to calculate the median of the toxic concentration (TC50) of the compounds, 1.33 × 10^5 HepG2.2.15 cells per well were seeded into a 24-well plate. After 24 h, the cells were treated with the test compounds at different concentrations (0, 50, 100, 150, 200 μM) and incubated for 48 h at 37 °C. All experiments were carried out in three identical repeats and the coefficient of variation and standard deviation were calculated from at least two independent experiments.
The percent inhibition at each compound concentration was calculated by normalization of the signals to the signals from non-treated HepG2.2.15 cells. […] Data points and error bars represent the means and standard deviations from at least two independent experiments, respectively. Comparisons between data groups were performed using the unpaired t test, with p values < 0.05 being considered statistically significant.

Sequence of HBV capsid assembly (full-length HBc protein, genotype D1) (P03146 whole entry A80I/T33N/V74G, looked up): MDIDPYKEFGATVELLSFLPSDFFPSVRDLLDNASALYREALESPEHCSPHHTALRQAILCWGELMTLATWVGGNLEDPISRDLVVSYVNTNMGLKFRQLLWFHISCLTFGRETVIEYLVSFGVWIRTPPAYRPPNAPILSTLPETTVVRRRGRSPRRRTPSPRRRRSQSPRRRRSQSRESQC
Sequence of HBc protein (P03146 whole entry A80I/T33N/V74G, looked up): as above
Sequence of HBV capsids (HBc assembly products) (P03146 whole entry A80I/T33N/V74G, looked up): as above

| SMILES | Toxic concentration (primary hepatocytes) | HBV DNA, % from control (HBV [1]; 10 µM) | EC50 (HBV [2]) | Concentration revealing cell toxicity signs (BHK-21 cells [3]; BHK-21 cells) | The Highest Non-Toxic Concentration (BHK-21 cells [3]; non-infected BHK-21 cells, no noticeable cytopathic effect) | Type of effect on HBV capsid assembly in dose-dependent experiments [4] | Effect on Capsid Assembly [4] | Effect on Capsid Assembly, Starting Concentration [4] | Morphology of HBc assembly products by electron microscopy [5] | Intracellular localization of HBc (HBc protein) | SI (TC50/EC50) (HBV [1]) | HBV DNA, % from control (HBV [1]; 20 µM) | Decrease in the amount of HBV virion release compared with control (HBV [1]; Figure 8) | Cell viability compared to untreated control (BHK-21 cells [6]) | Effect on capsid production / mobility in initial test ([4]; 1–50 μM, 24 h (Figure 5)) | TC50 (HepG2.2.15 cells) |
| --- | --- | --- | --- | --- | --- | --- | --- | --- | --- | --- | --- | --- | --- | --- | --- | --- |
| COC(=O)C1=C(C)NC(c2ncc(F)cc2F)=NC1c1ccc(F)cc1Cl (centres unmarked) [1a, Bay 41-4109, reference compound] | 5.06 µM | 2.5% | 0.35 µM | 100 µM | 100 µM | dose-dependent HBc signal decrease | Dose dependent capsid signal decrease | 1 µM |  |  |  |  |  |  |  |  |
| CCOCCOC(=O)C1=C(C)NC(c2ncc(F)cc2F)=NC1c1ccc(F)cc1Cl (centres unmarked) [1d] |  |  | 6.24 µM |  |  | dose-dependent HBc products accumulation | HBc accumulation, aggregates/or incorrect capsid structures | 5 µM | irregularly shaped structures that resembled capsids of the wrong size and incorrect symmetry, as well as the capsid aggregates | speckled dot pattern of HBc distribution in the cytoplasm; also recorded: blocked the intranuclear transport of HBc protein | 28 | 6.5% | ≤ 93.5% | did not demonstrate the difference in cell viability | misfolding of the HBV capsid | 175 µM |
